Numbers after ± are expanded uncertainties.
Test: xn = mol fraction of the nth substance listed
Details: Liquid, Constant-volume piezometry

CCO [ethanol] + O
Details	mass density [kg/m3]
292.95 K, 2450 kPa, x1 = 0.073	974.2 ± 0.6
292.95 K, 11320 kPa, x1 = 0.073	977.6 ± 0.6
292.95 K, 21120 kPa, x1 = 0.073	981.2 ± 0.6
292.95 K, 30930 kPa, x1 = 0.073	985 ± 0.7
292.95 K, 39230 kPa, x1 = 0.073	988 ± 0.7
297.05 K, 2490 kPa, x1 = 0.0163	990.8 ± 0.6
297.05 K, 11280 kPa, x1 = 0.0163	993.5 ± 0.6
297.05 K, 21070 kPa, x1 = 0.0163	997.5 ± 0.6
297.05 K, 30810 kPa, x1 = 0.0163	1003.2 ± 0.7
297.05 K, 39170 kPa, x1 = 0.0163	1006.1 ± 0.7
298.15 K, 2560 kPa, x1 = 0.0946	965.8 ± 0.6
298.15 K, 10120 kPa, x1 = 0.0946	968.6 ± 0.6
298.15 K, 20060 kPa, x1 = 0.0946	972.4 ± 0.6
298.15 K, 29980 kPa, x1 = 0.0946	976.1 ± 0.7
298.15 K, 40030 kPa, x1 = 0.0946	979.8 ± 0.7
298.35 K, 2590 kPa, x1 = 0.0343	984.1 ± 0.6
298.35 K, 11280 kPa, x1 = 0.0343	987.9 ± 0.6
298.35 K, 21300 kPa, x1 = 0.0343	991.9 ± 0.6
298.35 K, 31040 kPa, x1 = 0.0343	995.7 ± 0.7
298.35 K, 39150 kPa, x1 = 0.0343	998.6 ± 0.7
323.15 K, 2570 kPa, x1 = 0.0163	980.6 ± 0.6
323.15 K, 2610 kPa, x1 = 0.073	959.3 ± 0.6
323.15 K, 2730 kPa, x1 = 0.0946	951.3 ± 0.6
323.15 K, 10940 kPa, x1 = 0.073	962.8 ± 0.6
323.15 K, 11140 kPa, x1 = 0.0946	954.9 ± 0.6
323.15 K, 11390 kPa, x1 = 0.0163	984.4 ± 0.6
323.15 K, 20710 kPa, x1 = 0.0946	958.8 ± 0.6
323.15 K, 20790 kPa, x1 = 0.073	966.7 ± 0.6
323.15 K, 21080 kPa, x1 = 0.0163	988.4 ± 0.6
323.15 K, 30360 kPa, x1 = 0.073	970.6 ± 0.7
323.15 K, 30890 kPa, x1 = 0.0163	992.3 ± 0.7
323.15 K, 32400 kPa, x1 = 0.0946	963.3 ± 0.7
323.15 K, 38480 kPa, x1 = 0.0163	995.2 ± 0.7
323.15 K, 38600 kPa, x1 = 0.073	973.6 ± 0.7
323.15 K, 39810 kPa, x1 = 0.0946	966.2 ± 0.7
323.65 K, 2610 kPa, x1 = 0.0343	973.6 ± 0.6
323.65 K, 11320 kPa, x1 = 0.0343	977.4 ± 0.6
323.65 K, 21200 kPa, x1 = 0.0343	981.4 ± 0.6
323.65 K, 30930 kPa, x1 = 0.0343	985.2 ± 0.7
323.65 K, 39010 kPa, x1 = 0.0343	988.2 ± 0.7
348.15 K, 2730 kPa, x1 = 0.0946	933.7 ± 0.6
348.15 K, 3220 kPa, x1 = 0.0163	967.1 ± 0.6
348.15 K, 3260 kPa, x1 = 0.0343	959.9 ± 0.6
348.15 K, 3330 kPa, x1 = 0.073	943 ± 0.6
348.15 K, 10980 kPa, x1 = 0.0163	970.6 ± 0.6
348.15 K, 11060 kPa, x1 = 0.073	946.6 ± 0.6
348.15 K, 11390 kPa, x1 = 0.0946	937.4 ± 0.6
348.15 K, 11590 kPa, x1 = 0.0343	963.5 ± 0.6
348.15 K, 20750 kPa, x1 = 0.0163	974.7 ± 0.6
348.15 K, 20870 kPa, x1 = 0.073	950.8 ± 0.6
348.15 K, 20870 kPa, x1 = 0.0946	941.6 ± 0.6
348.15 K, 21160 kPa, x1 = 0.0343	967.5 ± 0.6
348.15 K, 29500 kPa, x1 = 0.0163	978.3 ± 0.7
348.15 K, 29730 kPa, x1 = 0.0946	945.4 ± 0.7
348.15 K, 30400 kPa, x1 = 0.073	955 ± 0.7
348.15 K, 30850 kPa, x1 = 0.0343	971.3 ± 0.7
348.15 K, 37790 kPa, x1 = 0.0946	948.7 ± 0.7
348.15 K, 39600 kPa, x1 = 0.073	958.9 ± 0.7
348.15 K, 39860 kPa, x1 = 0.0343	974.7 ± 0.7
348.15 K, 39910 kPa, x1 = 0.0163	982.3 ± 0.7
373.15 K, 3330 kPa, x1 = 0.0946	908.6 ± 0.6
373.15 K, 3370 kPa, x1 = 0.0163	950.2 ± 0.6
373.15 K, 3390 kPa, x1 = 0.0343	942.1 ± 0.6
373.15 K, 3510 kPa, x1 = 0.073	923.9 ± 0.6
373.15 K, 11320 kPa, x1 = 0.0163	953.8 ± 0.6
373.15 K, 11320 kPa, x1 = 0.073	927.7 ± 0.6
373.15 K, 11390 kPa, x1 = 0.0946	912.8 ± 0.6
373.15 K, 11470 kPa, x1 = 0.0343	945.9 ± 0.6
373.15 K, 21080 kPa, x1 = 0.073	932.5 ± 0.6
373.15 K, 21120 kPa, x1 = 0.0343	950.3 ± 0.6
373.15 K, 21160 kPa, x1 = 0.0163	958.3 ± 0.6
373.15 K, 21200 kPa, x1 = 0.0946	917.7 ± 0.6
373.15 K, 30520 kPa, x1 = 0.0343	954.5 ± 0.7
373.15 K, 30600 kPa, x1 = 0.0163	962.5 ± 0.7
373.15 K, 30670 kPa, x1 = 0.073	937 ± 0.7
373.15 K, 30850 kPa, x1 = 0.0946	922.3 ± 0.7
373.15 K, 35700 kPa, x1 = 0.0163	964.6 ± 0.7
373.15 K, 37230 kPa, x1 = 0.073	939.9 ± 0.7
373.15 K, 39000 kPa, x1 = 0.0343	957.9 ± 0.7
373.15 K, 39410 kPa, x1 = 0.0946	927.3 ± 0.7
398.15 K, 3510 kPa, x1 = 0.0946	885.8 ± 0.6
398.15 K, 3550 kPa, x1 = 0.0343	921.6 ± 0.6
398.15 K, 3710 kPa, x1 = 0.0163	930.3 ± 0.6
398.15 K, 3710 kPa, x1 = 0.073	901.9 ± 0.6
398.15 K, 11430 kPa, x1 = 0.0946	890.4 ± 0.6
398.15 K, 11510 kPa, x1 = 0.073	906.2 ± 0.6
398.15 K, 11630 kPa, x1 = 0.0163	934.4 ± 0.6
398.15 K, 11730 kPa, x1 = 0.0343	925.8 ± 0.6
398.15 K, 21160 kPa, x1 = 0.073	911.4 ± 0.6
398.15 K, 21200 kPa, x1 = 0.0946	896 ± 0.6
398.15 K, 21360 kPa, x1 = 0.0163	939.3 ± 0.6
398.15 K, 21530 kPa, x1 = 0.0343	930.7 ± 0.6
398.15 K, 30790 kPa, x1 = 0.0163	943.7 ± 0.7
398.15 K, 30790 kPa, x1 = 0.073	916.3 ± 0.7
398.15 K, 30850 kPa, x1 = 0.0946	901.1 ± 0.7
398.15 K, 30930 kPa, x1 = 0.0343	935.2 ± 0.7
398.15 K, 37300 kPa, x1 = 0.0343	938.3 ± 0.7
398.15 K, 39500 kPa, x1 = 0.073	920.7 ± 0.7
398.15 K, 39610 kPa, x1 = 0.0946	905.3 ± 0.7
398.15 K, 39890 kPa, x1 = 0.0163	948 ± 0.7
423.15 K, 2680 kPa, x1 = 0.0163	906.7 ± 0.6
423.15 K, 2680 kPa, x1 = 0.0343	897.3 ± 0.6
423.15 K, 2750 kPa, x1 = 0.0946	860.1 ± 0.6
423.15 K, 2760 kPa, x1 = 0.073	875.9 ± 0.6
423.15 K, 10050 kPa, x1 = 0.0946	863.9 ± 0.6
423.15 K, 10170 kPa, x1 = 0.0163	911 ± 0.6
423.15 K, 10240 kPa, x1 = 0.0343	901.8 ± 0.6
423.15 K, 10710 kPa, x1 = 0.073	881.1 ± 0.6
423.15 K, 20110 kPa, x1 = 0.073	887.1 ± 0.6
423.15 K, 20200 kPa, x1 = 0.0946	869.5 ± 0.6
423.15 K, 20970 kPa, x1 = 0.0163	917 ± 0.6
423.15 K, 21070 kPa, x1 = 0.0343	908.1 ± 0.6
423.15 K, 30100 kPa, x1 = 0.0946	875.5 ± 0.6
423.15 K, 30490 kPa, x1 = 0.073	893 ± 0.7
423.15 K, 30570 kPa, x1 = 0.0163	922.4 ± 0.7
423.15 K, 30640 kPa, x1 = 0.0343	913.4 ± 0.7
423.15 K, 39560 kPa, x1 = 0.0163	927.2 ± 0.7
423.15 K, 39680 kPa, x1 = 0.0343	918.2 ± 0.7
423.15 K, 39860 kPa, x1 = 0.0946	882.2 ± 0.7
423.15 K, 40110 kPa, x1 = 0.073	898.6 ± 0.7
448.15 K, 3860 kPa, x1 = 0.0946	831.7 ± 0.6
448.15 K, 3960 kPa, x1 = 0.0163	882.3 ± 0.6
448.15 K, 4000 kPa, x1 = 0.073	849.3 ± 0.6
448.15 K, 4080 kPa, x1 = 0.0343	872.1 ± 0.6
448.15 K, 11550 kPa, x1 = 0.0946	837.9 ± 0.6
448.15 K, 11920 kPa, x1 = 0.0163	887.5 ± 0.6
448.15 K, 11960 kPa, x1 = 0.0343	877.7 ± 0.6
448.15 K, 12160 kPa, x1 = 0.073	855.6 ± 0.6
448.15 K, 21530 kPa, x1 = 0.0163	893.7 ± 0.6
448.15 K, 21690 kPa, x1 = 0.073	862.7 ± 0.6
448.15 K, 21690 kPa, x1 = 0.0946	845.8 ± 0.6
448.15 K, 22180 kPa, x1 = 0.0343	884.2 ± 0.6
448.15 K, 30990 kPa, x1 = 0.0946	852.6 ± 0.6
448.15 K, 31010 kPa, x1 = 0.0343	889.8 ± 0.7
448.15 K, 31050 kPa, x1 = 0.0163	899.4 ± 0.7
448.15 K, 31170 kPa, x1 = 0.073	869.2 ± 0.7
448.15 K, 37210 kPa, x1 = 0.073	873 ± 0.7
448.15 K, 38340 kPa, x1 = 0.0163	903.5 ± 0.7
448.15 K, 40060 kPa, x1 = 0.0343	894.8 ± 0.7
448.15 K, 40140 kPa, x1 = 0.0946	858.6 ± 0.7

— the NIST ThermoML archive (doi:10.1016/j.fluid.2014.05.032)
